# Measurements taken from ChEMBL document CHEMBL1201862, “PubChem BioAssay data set” (2004).
#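 Following 48 hours of exposure in 96-well plates, responses at five concentrations were used to interpolate endpoints linearly. Abbreviation: GI50, concentration required for 50% inhibition of growth.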 Active and inactive are the calls of the source. Rule as the data show it: active = GI50 up to about 1.1 µM and inactive = higher.
# Key:
# Experiment in all cases: NCI tumour cell line growth inhibition, 48 h
# [1] = test system: SNB-19
# [2] = test system: UACC-257
# [3] = test system: NCI-H522
# [4] = test system: Hs-578T
# [5] = test system: SR
# [6] = test system: RXF 393
# [7] = test system: CCRF-CEM
# [8] = test system: SF-295
# [9] = test system: RPMI-8226
# [10] = test system: SF-268
# [11] = test system: SK-MEL-5
# [12] = test system: OVCAR-4
# [13] = test system: HCT-116
# [14] = test system: HL-60
# [15] = test system: SF-539
# [16] = test system: A498
# [17] = test system: MDA-MB-435
# [18] = test system: SK-MEL-28
# [19] = test system: UO-31
# [20] = test system: SNB-75
# [21] = test system: K562
# [22] = test system: EKVX
# [23] = test system: NCI/ADR-RES
# [24] = test system: OVCAR-3
# [25] = test system: 786-0
# [26] = test system: TK-10
# [27] = test system: HCC 2998
# [28] = test system: HT-29
# [29] = test system: OVCAR-5
# [30] = test system: Malme-3M
# [31] = test system: MCF7
# [32] = test system: HOP-62
# [33] = test system: LOX IMVI
# [34] = test system: HCT-15
# [35] = test system: SK-OV-3
# [36] = test system: SK-MEL-2
# [37] = test system: CAKI-1
# [38] = test system: SW-620
# [39] = test system: PC-3
# [40] = test system: IGROV-1
# [41] = test system: U-251
# [42] = test system: T47D
# [43] = test system: DU-145
# [44] = test system: MDA-MB-231
# [45] = test system: NCI-H23
# [46] = test system: HOP-92
# [47] = test system: NCI-H460
# [48] = test system: MOLT-4
# [49] = test system: OVCAR-8
# [50] = test system: M14
# [51] = test system: ACHN
# [52] = test system: A549
compound,measurement,setting,value
COC(O)C(=O)c1c2c(cc3c1CC1(Cc4cc5c(cc4C1)CCC5)C3)CCC2 (configuration not stated),GI50,[1],18.1 µM (inactive)
same,GI50,[2],18.7 µM (inactive)
same,GI50,[3],17.7 µM (inactive)
same,GI50,[4],20.4 µM (inactive)
same,GI50,[5],3.99 µM (inactive)
same,GI50,[6],14.8 µM (inactive)
same,GI50,[7],4.33 µM (inactive)
same,GI50,[8],19.7 µM (inactive)
same,GI50,[9],8.02 µM (inactive)
same,GI50,[10],20.5 µM (inactive)
same,GI50,[11],17.3 µM (inactive)
same,GI50,[12],18.5 µM (inactive)
same,GI50,[13],8.73 µM (inactive)
same,GI50,[14],23.2 µM (inactive)
same,GI50,[15],17.3 µM (inactive)
same,GI50,[16],17.9 µM (inactive)
same,GI50,[17],2.7 µM (inactive)
same,GI50,[18],20 µM (inactive)
same,GI50,[19],18.7 µM (inactive)
same,GI50,[20],17.1 µM (inactive)
same,GI50,[21],13.2 µM (inactive)
same,GI50,[22],22.2 µM (inactive)
same,GI50,[23],17.3 µM (inactive)
same,GI50,[24],15.6 µM (inactive)
same,GI50,[25],14 µM (inactive)
same,GI50,[26],17.7 µM (inactive)
same,GI50,[27],23.6 µM (inactive)
same,GI50,[28],9.33 µM (inactive)
same,GI50,[29],18.2 µM (inactive)
same,GI50,[30],16.3 µM (inactive)
same,GI50,[31],16 µM (inactive)
same,GI50,[32],15.9 µM (inactive)
same,GI50,[33],7.13 µM (inactive)
same,GI50,[34],20.7 µM
same,GI50,[35],17.4 µM (inactive)
same,GI50,[36],16 µM (inactive)
same,GI50,[37],20.5 µM (inactive)
same,GI50,[38],16.2 µM (inactive)
same,GI50,[39],16.7 µM (inactive)
same,GI50,[40],13 µM (inactive)
same,GI50,[41],11.6 µM (inactive)
same,GI50,[42],21.9 µM (inactive)
same,GI50,[43],19.5 µM (inactive)
same,GI50,[44],14.1 µM (inactive)
same,GI50,[45],16.4 µM (inactive)
same,GI50,[46],15.7 µM (inactive)
same,GI50,[47],23.6 µM (inactive)
same,GI50,[48],15.8 µM (inactive)
same,GI50,[49],18.3 µM (inactive)
same,GI50,[50],16.6 µM (inactive)
same,GI50,[51],15.7 µM (inactive)
same,GI50,[52],16.8 µM (inactive)
